Columns and labels:
α = details: cited from earlier work
Solubility in water = format: physicochemical

solubility (Solubility in water): 3000 to 5000 µg/mL
Structure (SMILES): CCOc1ccccc1OCCNC(C)Cc1ccc(OC)c(S(N)(=O)=O)c1.Cl (centres unmarked) [YM-12617, 5-{2-[2-(o-ethoxyphenoxy)ethylamino]propyl}-2-methoxybenzenesulfonamide hydrochloride]
α-blocking action (α): shows an α-blocking action

— patent US4772475A, “Controlled-release multiple units pharmaceutical formulation” (Yamanouchi Pharmaceutical Co., Ltd., priority 1985, dated 1988)
